Experimental data as given in ChEMBL document CHEMBL5120927, “LEGO-Lipophosphonoxins: A Novel Approach in Designing Membrane Targeting Antimicrobials” (J Med Chem, 2022).

Legend:
Enterococcus faecalis = test: Antibacterial activity against Enterococcus faecalis ATCC 29212 = CCM 4224 assessed as inhibition of bacterial growth incubated for 24 hrs by microdilution assay; type: functional
Staphylococcus aureus [1] = test: Antibacterial activity against Staphylococcus aureus ATCC 29213 = CCM 4223 assessed as inhibition of bacterial growth incubated for 24 hrs by microdilution assay; type: functional
Staphylococcus aureus [2] = test: Antibacterial activity against Staphylococcus aureus ATCC 29213 = CCM 4223 assessed as inhibition of bacterial growth incubated for 24 hrs in presence of BSA by microdilution assay; type: functional
Escherichia coli [3] = test: Antibacterial activity against Escherichia coli ATCC 25922 = CCM 3954 assessed as inhibition of bacterial growth incubated for 24 hrs by microdilution assay; type: functional
Escherichia coli [4] = test: Antibacterial activity against Escherichia coli ATCC 25922 = CCM 3954 assessed as inhibition of bacterial growth incubated for 24 hrs in presence of BSA by microdilution assay; type: functional
Pseudomonas aeruginosa [5] = test: Antibacterial activity against Pseudomonas aeruginosa ATCC 27853 = CCM 3955 assessed as inhibition of bacterial growth incubated for 24 hrs by microdilution assay; type: functional
[6] = Hemolytic activity in human RBC assessed as haemoglobin release measured after 3 hr; type: toxicity, cell-based, Erythrocyte; conditions: red blood cells (erythrocytes)
[7] = Gradient chromatographic hydrophobicity index of the compound at pH 3.7 by HPLC analysis; type: ADME
[8] = tested on: Staphylococcus epidermidis; test: Antibacterial activity against Staphylococcus epidermidis CCM 7221 assessed as inhibition of bacterial growth incubated for 24 hrs by microdilution assay; type: functional
Staphylococcus aureus [9] = test: Antibacterial activity against methicillin resistant Staphylococcus aureus 4591/A assessed as reduction in microbial growth incubated for 24 hrs by microdilution assay; type: functional
Escherichia coli [10] = test: Antibacterial activity against multidrug-resistant Escherichia coli CE5556 expressing CTX-M-15 assessed as reduction in microbial growth incubated for 24 hrs by microdilution assay; type: functional
Enterococcus faecium = test: Antibacterial activity against vancomycin resistant Enterococcus faecium 419/ANA assessed as reduction in microbial growth incubated for 24 hrs by microdilution assay; type: functional
Pseudomonas aeruginosa [11] = test: Antibacterial activity against multidrug-resistant Pseudomonas aeruginosa assessed as reduction in microbial growth incubated for 24 hrs by microdilution assay; type: functional

Row | SMILES | MIC (Enterococcus faecalis) [µg/mL] | MIC (Staphylococcus aureus [1]) [µg/mL] | MIC (Staphylococcus aureus [2]) [µg/mL] | MIC (Escherichia coli [3]) [µg/mL] | MIC (Escherichia coli [4]) [µg/mL] | MIC (Pseudomonas aeruginosa [5]) [µg/mL] | HC50 at 3 h [6] [µg/mL] | CHI [7] | MIC [8] [µg/mL] | MIC (Staphylococcus aureus [9]) [µg/mL] | MIC (Escherichia coli [10]) [µg/mL] | MIC (Enterococcus faecium) [µg/mL] | MIC (Pseudomonas aeruginosa [11]) [µg/mL]
1 | CCCCCCCOP(=O)(CCN(CCCN)CCCN)OCCCCOP(=O)(CCN(CCCN)CCCN)OCCCCCCC.Cl.Cl.Cl.Cl.Cl.Cl (stereo not given) | 64 | 4 | 8 | 8 | 32 | 128 | > 200 | 30.7 | 2 | 4 | 64 | > 128 | 128
2 | CC(C)COP(=O)(CCN(CCCN)CCCN)OCCCCCCCCCCCCCCOP(=O)(CCN(CCCN)CCCN)OCC(C)C.Cl.Cl.Cl.Cl.Cl.Cl (stereo not given) | 4 | – | – | 16 | – | 4 | – | 27.3 | 0.5 | 4 | 16 | 16 | –
3 | Cl.Cl.Cl.Cl.Cl.Cl.NCCCN(CCCN)CCP(=O)(OCCCCCCOP(=O)(CCN(CCCN)CCCN)OCC1CCCC1)OCC1CCCC1 (stereo not given) | > 128 | 128 | > 128 | > 128 | > 128 | > 128 | > 1000 | 14.8 | 64 | 128 | > 128 | > 128 | > 128
4 | CCCCCCCCOP(=O)(CCN(CCCN)CCCN)OCCOCc1ccccc1.Cl.Cl.Cl (stereo not given) | 128 | 128 | > 128 | > 128 | > 132 | > 128 | > 100 | – | – | – | – | – | –
5 | CCCCCCCCCOP(=O)(CCN(CCCN)CCCN)OCCc1cccc2ccccc12.Cl.Cl.Cl (stereo not given) | 2 | 2 | 64 | 4 | 64 | 4 | 12.8 | – | – | – | – | – | –
6 | CCCCC/C=C\CCOP(=O)(CCN(CCCN)CCCN)OCCCOP(=O)(CCN(CCCN)CCCN)OCC/C=C\CCCCC.Cl.Cl.Cl.Cl.Cl.Cl (stereo not given) | 8 | 2 | 4 | 2 | 4 | 8 | > 500 | 36.2 | 2 | 2 | 4 | 64 | 4
7 | CCC/C=C\CCOP(=O)(CCN(CCCN)CCCN)OCCCCCCCCOP(=O)(CCN(CCCN)CCCN)OCC/C=C\CCC.Cl.Cl.Cl.Cl.Cl.Cl (stereo not given) | 64 | 8 | 8 | 1 | 64 | 128 | > 200 | 32.8 | 2 | 4 | 16 | > 128 | 128
8 | CCCCCCCCCOP(=O)(CCN(CCCN)CCCN)OCCOCc1ccccc1.Cl.Cl.Cl (stereo not given) | 32 | 32 | > 128 | 64 | > 128 | 64 | 79.8 | – | – | – | – | – | –
9 | CCCCOP(=O)(CCN(CCCN)CCCN)OCCCCCCCCCCCCCCOP(=O)(CCN(CCCN)CCCN)OCCCC.Cl.Cl.Cl.Cl.Cl.Cl (stereo not given) | 4 | – | – | 16 | – | 4 | – | 35.2 | 0.5 | 2 | 32 | 16 | –
10 | CCCCCCCCOP(=O)(CCN(CCCN)CCCN)OCCCOP(=O)(CCN(CCCN)CCCN)OCCCCCCCC.Cl.Cl.Cl.Cl.Cl.Cl (stereo not given) | 8 | 2 | 2 | 2 | 4 | 16 | > 500 | 35.5 | 2 | 2 | 4 | 64 | 8
11 | CCCCCCCCCCOP(=O)(CCN(CCCN)CCCN)OCCCOP(=O)(CCN(CCCN)CCCN)OCCCCCCCCCC.Cl.Cl.Cl.Cl.Cl.Cl (stereo not given) | 1 | 1 | 1 | 1 | 4 | 2 | 31.6 | 43.7 | 1 | 1 | 1 | 4 | 2
12 | CCCCCCCCCCCCOP(=O)(CCN(CCCN)CCCN)OCCCCCCCCCCCC.Cl.Cl.Cl | 25 | 100 | – | 100 | – | 100 | 11.3 | – | – | – | – | – | –
13 | CCCCCOP(=O)(CCN(CCCN)CCCN)OCCCCCCCCCCCCOP(=O)(CCN(CCCN)CCCN)OCCCCC.Cl.Cl.Cl.Cl.Cl.Cl (stereo not given) | 2 | – | 8 | 16 | 16 | 4 | 444 | 34.7 | 0.5 | 1 | 32 | 16 | 4
14 | CCCCCCCCCCCCCCCCOP(=O)(CCN(CCCN)CCCN)OCC.Cl.Cl.Cl (stereo not given) | 2 | 2 | 128 | 2 | > 130 | 4 | 9.4 | – | – | – | – | – | –
15 | CCCCCCCCCOP(=O)(CCN(CCCN)CCCN)OCCc1ccc(Cl)cc1.Cl.Cl.Cl (stereo not given) | 2 | 2 | 64 | 2 | 64 | 8 | 17.3 | – | – | – | – | – | –
16 | CCCCCCCCCOP(=O)(CCN(CCCN)CCCN)OCCOCc1ccc(OC)cc1.Cl.Cl.Cl (stereo not given) | 16 | 16 | 128 | 32 | > 133 | 16 | 55 | – | – | – | – | – | –
17 | CCCCCCCCOP(=O)(CCN(CCCN)CCCN)OCCCCCCCCCCCCOP(=O)(CCN(CCCN)CCCN)OCCCCCCCC.Cl.Cl.Cl.Cl.Cl.Cl (stereo not given) | 1 | – | – | 1 | – | 2 | – | 432 | 0.5 | 1 | 1 | 1 | –
18 | CCCCCCOP(=O)(CCN(CCCN)CCCN)OCCCCCCCCCCCCCCOP(=O)(CCN(CCCN)CCCN)OCCCCCC.Cl.Cl.Cl.Cl.Cl.Cl (stereo not given) | 1 | – | – | 1 | – | 2 | – | 40.6 | 0.5 | 1 | 1 | 2 | –
19 | CCCCCCCCCOP(=O)(CCN(CCCN)CCCN)OCCc1ccc([N+](=O)[O-])cc1.Cl.Cl.Cl (stereo not given) | 16 | 8 | 64 | 16 | 128 | 8 | 50 | – | – | – | – | – | –
20 | CCCCCCCCCCCCCCCOP(=O)(CCN(CCCN)CCCN)OCC.Cl.Cl.Cl (stereo not given) | 2 | 2 | > 128 | 1 | > 129 | 2 | 6.9 | – | – | – | – | – | –
21 | CCCCCCOP(=O)(CCN(CCCN)CCCN)OCCCCCCCCCCCCOP(=O)(CCN(CCCN)CCCN)OCCCCCC.Cl.Cl.Cl.Cl.Cl.Cl (stereo not given) | 0.5 | – | – | 1 | – | 2 | – | 37.7 | 0.125 | 0.5 | 2 | 2 | –
22 | CCCCCCCCCCCCCCOP(=O)(CCN(CCCN)CCCN)OCCc1c[nH]c2ccccc12.Cl.Cl.Cl.Cl (stereo not given) | 4 | 2 | – | 2 | – | 2 | 12.4 | – | – | – | – | – | –
23 | CCCCCCCCCCCCOP(=O)(CCN(CCCN)CCCN)OCCc1c[nH]c2ccccc12.Cl.Cl.Cl.Cl (stereo not given) | 4 | 2 | – | 4 | – | 8 | 12.1 | – | – | – | – | – | –
24 | CCCCCOP(=O)(CCN(CCCN)CCCN)OCCCCCCCCCCCCCCOP(=O)(CCN(CCCN)CCCN)OCCCCC.Cl.Cl.Cl.Cl.Cl.Cl (stereo not given) | 1 | – | – | 2 | – | 4 | – | 38.1 | 0.5 | 1 | 2 | 2 | –
25 | CCCCCCCCCOP(=O)(CCN(CCCN)CCCN)OCCc1ccccc1.Cl.Cl.Cl (stereo not given) | 32 | 16 | – | 32 | – | 16 | 58.7 | – | – | – | – | – | –
26 | CCCCCCOP(=O)(CCN(CCCN)CCCN)OCCc1cccc2ccccc12.Cl.Cl.Cl (stereo not given) | 64 | 64 | > 128 | > 128 | > 131 | 64 | > 100 | – | – | – | – | – | –
27 | CCCCCCCCCCCCCCOP(=O)(CCN(CCCN)CCCN)OCC.Cl.Cl.Cl (stereo not given) | 4 | 4 | > 128 | 4 | > 128 | 4 | 12.2 | – | – | – | – | – | –
28 | CCCCCCCCCOP(=O)(CCN(CCCN)CCCN)OCCc1ccc(N)cc1.Cl.Cl.Cl.Cl (stereo not given) | 128 | 64 | > 128 | 128 | > 128 | 128 | > 100 | – | – | – | – | – | –
